Marks after values point to notes of the source that are not given here.
Experiment: physchem
Assay type: physicochemical
Protocol: Measurement of Log P values as provided herein was performed according to EEC directive 79/831 Annex V.A8 by HPLC (High Performance Liquid Chromatography) on reversed phase columns with the following methods: […] If more than one Log P value is available within the same method, all the values are given and separated by “+”. Calibration was done with straight-chain alkan2-ones (with 3 to 16 carbon atoms) with known Log P values (measurement of Log P values using retention times with linear interpolation between successive alkanones). Lambda-max-values were determined using UV-spectra from 200 nm to 400 nm and the peak values of the chromatographic signals

| SMILES | LogP |
| --- | --- |
| Cc1ccc(C(F)(F)CNC(=O)c2ccncc2Oc2cccc(C(F)(F)F)c2)c(C)c1 [Compound I-015] | 3.84^[a] |
| Cc1ccc(CONC(=O)c2cc(Cl)ncc2Oc2cccc(C(F)(F)F)c2)c(C)c1 [Compound I-017] | 4.26^[a] |
| Cc1cc(C(=O)NC(C)c2cn(C)c3ccccc23)c(Oc2cccc(C(F)(F)F)c2)cn1 (centres unmarked) [Compound I-020] | 3.64^[a] |
| CC(NC(=O)c1cc(Cl)ncc1Oc1cccc(C(F)(F)F)c1)c1cn(C)c2cc(Cl)ccc12 (centres unmarked) [Compound I-021] | 4.68^[a] |
| CCc1cc(C(=O)NCC(F)c2ccc(F)cc2F)c(Oc2cccc(C(F)(F)F)c2)cn1 (centres unmarked) [Compound I-022] | 4.66^[a] |
| Cc1ccc(C(F)(F)CNC(=O)c2cc(Cl)ncc2Oc2cccc(C(F)(F)F)c2C)c(C)c1 [Compound I-023] | 5.14^[a] |
| O=C(NCC(F)c1ccc(Cl)cc1Cl)c1cc(C2CC2)ncc1Oc1cccc(C(F)(F)F)c1 (centres unmarked) [Compound I-024] | 4.96^[a] |
| Cc1ccc(CCNC(=O)c2cc(Cl)ncc2Oc2cccc(OC(F)(F)F)c2)c(C)c1 [Compound I-025] | 4.97^[a] |
| CCc1cc(C(=O)NCC(F)(F)c2ccc(C)cc2C)c(Oc2cccc(C(F)(F)F)c2)cn1 [Compound I-026] | 4.58^[a] |
| Cc1ccc(CCNC(=O)c2cc(C)ncc2Oc2cccc(C(F)(F)F)c2)c(C)c1 [Compound I-028] | 4.03^[a] |
| C#Cc1ccc(C(F)(F)CNC(=O)c2cc(Cl)ncc2Oc2cccc(C(F)(F)F)c2)c(Cl)c1 [Compound I-029] | 4.53^[a] |
| CCc1cc(C(=O)NCCc2ccc(C)cc2C)c(Oc2cccc(C(F)(F)F)c2)cn1 [Compound I-030] | 4.49^[a] |
| C#Cc1cc(C(=O)NC(C)c2cn(C)c3cc(Cl)ccc23)c(Oc2cccc(C(F)(F)F)c2)cn1 (centres unmarked) [Compound I-031] | 4.27^[a] |
| C#Cc1cc(C(=O)NCC(F)(F)c2ccc(C)cc2C)c(Oc2cccc(C(F)(F)F)c2)cn1 [Compound I-032] | 4.39^[a] |
| Cc1ccc(C(F)(F)CNC(=O)c2cc(C)ncc2Oc2cccc(C(F)(F)F)c2)c(Cl)c1 [Compound I-033] | 4.19^[a] |
| Cc1ccc(C(F)(F)CNC(=O)c2cc(Cl)ncc2Oc2cccc(Cl)c2)c(C)c1 [Compound I-036] | 4.74^[a] |
| Cc1ccc(C(F)(F)CNC(=O)c2cc(Cl)ncc2Oc2cccc(C(F)F)c2)c(C)c1 [Compound I-038] | 4.35^[a] |
| Cc1ccc(CCNC(=O)c2cc(Cl)ncc2Oc2cccc(C(F)F)c2)c(C)c1 [Compound I-039] | 4.30^[a] |
| COc1cccc(Oc2cnc(Cl)cc2C(=O)NCC(F)(F)c2ccc(C)cc2C)c1 [Compound I-042] | 4.46^[a] |
| Cc1cccc(Oc2cnc(Cl)cc2C(=O)NCC(F)(F)c2ccc(C)cc2C)c1 [Compound I-044] | 4.85^[a] |
| Cc1cccc(Oc2cnc(Cl)cc2C(=O)NCCc2ccc(C)cc2C)c1 [Compound I-045] | 4.84^[a] |
| O=C(NCC(F)(F)c1ccc(Br)cc1Cl)c1c(Oc2cccc(C(F)(F)F)c2)cnc(Cl)c1I [Compound I-046] | 4.96^[a] |
| Cc1cccc(Oc2cnc(C)cc2C(=O)NCC(F)(F)c2ccc(C)cc2C)c1 [Compound I-047] | 4.08^[a] |
| COc1cccc(Oc2cnc(Cl)cc2C(=O)NCC(F)(F)c2ccc(C)cc2Cl)c1 [Compound I-048] | 3.67^[a] |
| Cc1ccc(C(F)(F)CNC(=O)c2cc(C)ncc2Oc2cccc(C(F)F)c2)c(C)c1 [Compound I-049] | 3.73^[a] |
| C=C(OCC)c1cc(C(=O)NCCc2ccc(C)cc2C)c(Oc2cccc(C(F)(F)F)c2)cn1 [Compound I-051] | 4.84^[a] |
| Cc1ccc(C(F)(F)CNC(=O)c2cc(C)ncc2Oc2cccc(Cl)c2)c(C)c1 [Compound I-058] | 4.13^[a] |
| Cc1ccc(CCNC(=O)c2cc(C#N)ncc2Oc2cccc(C(F)(F)F)c2)c(C)c1 [Compound I-059] | 4.39^[a] |
| Cc1ccc(C(F)(F)CNC(=O)c2cc(Cl)ncc2Oc2cccc(C3CC3)c2F)c(C)c1 [Compound I-061] | 5.11^[a] |

— US12552748B2, “Pyridine (thio)amides as fungicidal compounds” (Bayer Aktiengesellschaft, priority 2020, dated 2026)
